Measurements published in ChEMBL document CHEMBL1201862, “PubChem BioAssay data set” (2004).
Each block holds one compound with its values, some of them ahead of it. Activity calls are given as the source filed them.

How the values were obtained:
[1] = biological target: T1, Ubiquitin-conjugating enzyme E2 N (Homo sapiens, UniProt P61088); assay type: functional;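 also: Dose-response confirmation in a TR-FRET assay detecting UBC13-driven polyubiquitin chain formation, inhibition measured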
T1 sequence (P61088 whole entry): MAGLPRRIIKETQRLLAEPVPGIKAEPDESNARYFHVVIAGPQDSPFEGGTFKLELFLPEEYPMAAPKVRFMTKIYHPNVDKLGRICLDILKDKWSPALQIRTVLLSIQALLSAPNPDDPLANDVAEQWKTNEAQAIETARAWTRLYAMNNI

[2] = biological target: T2, 1-phosphatidylinositol 4,5-bisphosphate phosphodiesterase gamma-1 (Homo sapiens, UniProt P19174); assay: Counterscreen for inhibitors of phospholipase C isozymes (PLC-B3): Fluorescence-based biochemical high throughput dose response assay to identify inhibitors of phospholipase C isozymes (PLC-gamma1).
T2 sequence (P19174 whole entry): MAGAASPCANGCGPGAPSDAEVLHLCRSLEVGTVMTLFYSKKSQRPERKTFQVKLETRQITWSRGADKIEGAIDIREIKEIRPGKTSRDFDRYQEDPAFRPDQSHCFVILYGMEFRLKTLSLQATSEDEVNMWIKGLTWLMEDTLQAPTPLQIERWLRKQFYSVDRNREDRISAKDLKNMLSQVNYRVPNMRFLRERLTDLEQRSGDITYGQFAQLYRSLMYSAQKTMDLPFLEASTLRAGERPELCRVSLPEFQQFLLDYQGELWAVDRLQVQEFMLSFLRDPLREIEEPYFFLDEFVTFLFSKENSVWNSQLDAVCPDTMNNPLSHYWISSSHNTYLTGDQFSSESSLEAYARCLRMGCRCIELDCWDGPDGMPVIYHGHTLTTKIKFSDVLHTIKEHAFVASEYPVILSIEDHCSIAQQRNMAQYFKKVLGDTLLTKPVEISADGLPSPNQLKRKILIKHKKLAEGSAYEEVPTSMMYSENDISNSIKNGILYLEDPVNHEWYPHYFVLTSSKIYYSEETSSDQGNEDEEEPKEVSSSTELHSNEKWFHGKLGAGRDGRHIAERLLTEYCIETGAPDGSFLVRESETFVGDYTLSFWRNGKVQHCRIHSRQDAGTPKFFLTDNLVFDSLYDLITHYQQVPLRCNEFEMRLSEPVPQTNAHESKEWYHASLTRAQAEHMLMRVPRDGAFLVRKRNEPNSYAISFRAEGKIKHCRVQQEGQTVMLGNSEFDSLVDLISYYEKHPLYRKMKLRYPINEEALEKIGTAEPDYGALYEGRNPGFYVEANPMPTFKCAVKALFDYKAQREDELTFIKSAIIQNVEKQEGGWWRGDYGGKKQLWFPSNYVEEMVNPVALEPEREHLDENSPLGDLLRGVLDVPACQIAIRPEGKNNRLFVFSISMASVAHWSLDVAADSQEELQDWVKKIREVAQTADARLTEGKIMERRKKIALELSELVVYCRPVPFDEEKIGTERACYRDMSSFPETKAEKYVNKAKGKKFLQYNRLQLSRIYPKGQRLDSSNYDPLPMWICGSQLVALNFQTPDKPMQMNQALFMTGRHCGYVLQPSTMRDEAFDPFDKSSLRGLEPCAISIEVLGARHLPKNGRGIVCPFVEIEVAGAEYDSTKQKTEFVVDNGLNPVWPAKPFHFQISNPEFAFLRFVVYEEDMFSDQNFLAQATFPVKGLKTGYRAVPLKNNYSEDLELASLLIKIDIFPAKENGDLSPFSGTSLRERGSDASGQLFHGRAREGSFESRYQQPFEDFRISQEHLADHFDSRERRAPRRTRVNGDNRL

[3] = biological target: Activin receptor type-1 (Homo sapiens, UniProt Q04771); assay: Navigating the Kinome. Panel member name: ACVR1; assay type: functional
Activin receptor type-1, sequence (Q04771 whole entry): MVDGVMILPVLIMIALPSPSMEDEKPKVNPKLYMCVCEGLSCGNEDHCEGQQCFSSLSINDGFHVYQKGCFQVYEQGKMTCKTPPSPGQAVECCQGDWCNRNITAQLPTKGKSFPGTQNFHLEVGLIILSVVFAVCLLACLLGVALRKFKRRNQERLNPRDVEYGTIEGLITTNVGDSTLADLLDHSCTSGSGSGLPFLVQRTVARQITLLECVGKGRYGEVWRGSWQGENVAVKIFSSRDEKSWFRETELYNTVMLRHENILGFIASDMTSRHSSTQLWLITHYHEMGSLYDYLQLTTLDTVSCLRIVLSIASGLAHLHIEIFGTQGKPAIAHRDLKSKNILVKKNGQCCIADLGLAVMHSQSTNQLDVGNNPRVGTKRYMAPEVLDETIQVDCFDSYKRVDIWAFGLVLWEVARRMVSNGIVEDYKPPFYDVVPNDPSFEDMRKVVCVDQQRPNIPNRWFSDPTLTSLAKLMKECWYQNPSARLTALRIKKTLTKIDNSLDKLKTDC

[4] = biological target: T3, Orexin/Hypocretin receptor type 1 (Homo sapiens, UniProt O43613); assay: Homogeneous Time Resolved Fluorescence (HTRF)-based cell-based high throughput dose response assay for antagonists of the orexin 1 receptor (OX1R; HCRTR1). [Related pubchem assays (depositor defined):AID434989, AID435008, AID463079, AID485270, AID492963, AID492964, AID492965, AID493232, AID504717, AID504718]; assay type: functional
T3 sequence (O43613 whole entry): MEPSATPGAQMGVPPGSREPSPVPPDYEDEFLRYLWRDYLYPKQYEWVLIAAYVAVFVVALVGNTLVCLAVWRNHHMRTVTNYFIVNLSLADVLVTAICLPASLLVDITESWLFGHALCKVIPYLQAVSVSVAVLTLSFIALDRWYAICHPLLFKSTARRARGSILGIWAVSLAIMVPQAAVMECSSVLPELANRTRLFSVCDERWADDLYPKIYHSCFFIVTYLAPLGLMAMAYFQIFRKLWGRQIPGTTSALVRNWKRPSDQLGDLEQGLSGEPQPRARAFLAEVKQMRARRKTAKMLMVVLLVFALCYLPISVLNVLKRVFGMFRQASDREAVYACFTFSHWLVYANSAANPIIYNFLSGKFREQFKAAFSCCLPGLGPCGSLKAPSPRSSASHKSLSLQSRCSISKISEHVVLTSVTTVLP

[5] = biological target: T3, Orexin/Hypocretin receptor type 1; assay: Fluorescence-based cell-based high throughput dose response assay for antagonists of the orexin 1 receptor (OX1R; HCRTR1). [Related pubchem assays (depositor defined):AID434989, AID435008, AID463079, AID485270, AID492963, AID492964, AID492965, AID493232, AID504717, AID504718]; assay type: functional
[6] = biological target: Beta Lactamase (Pseudomonas aeruginosa, UniProt Q932Y6); assay: BLA reporter interference, concentration series – BLA reporter cells, FRET fluorescence, artefact control for TLR9-MyD88 binding inhibitor project, dose response (AID 588341); assay type: cell-based;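 also: cell based assay in CHO-K1 cells stably expressing beta-lactamase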
Beta Lactamase, sequence (Q932Y6 whole entry): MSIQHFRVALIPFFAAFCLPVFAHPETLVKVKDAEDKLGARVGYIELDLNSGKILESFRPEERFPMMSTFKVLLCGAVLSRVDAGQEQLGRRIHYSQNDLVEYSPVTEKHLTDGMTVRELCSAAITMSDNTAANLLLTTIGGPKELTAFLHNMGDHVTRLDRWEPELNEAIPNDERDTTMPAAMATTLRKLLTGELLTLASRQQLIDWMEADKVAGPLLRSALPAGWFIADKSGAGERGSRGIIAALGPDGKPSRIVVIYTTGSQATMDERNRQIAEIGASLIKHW

[7] = biological target: Protein kinase C theta type (Homo sapiens, UniProt Q04759); assay: Navigating the Kinome. Panel member name: PRKCQ; assay type: functional
Protein kinase C theta type, sequence (Q04759 whole entry, the tested form may be a part): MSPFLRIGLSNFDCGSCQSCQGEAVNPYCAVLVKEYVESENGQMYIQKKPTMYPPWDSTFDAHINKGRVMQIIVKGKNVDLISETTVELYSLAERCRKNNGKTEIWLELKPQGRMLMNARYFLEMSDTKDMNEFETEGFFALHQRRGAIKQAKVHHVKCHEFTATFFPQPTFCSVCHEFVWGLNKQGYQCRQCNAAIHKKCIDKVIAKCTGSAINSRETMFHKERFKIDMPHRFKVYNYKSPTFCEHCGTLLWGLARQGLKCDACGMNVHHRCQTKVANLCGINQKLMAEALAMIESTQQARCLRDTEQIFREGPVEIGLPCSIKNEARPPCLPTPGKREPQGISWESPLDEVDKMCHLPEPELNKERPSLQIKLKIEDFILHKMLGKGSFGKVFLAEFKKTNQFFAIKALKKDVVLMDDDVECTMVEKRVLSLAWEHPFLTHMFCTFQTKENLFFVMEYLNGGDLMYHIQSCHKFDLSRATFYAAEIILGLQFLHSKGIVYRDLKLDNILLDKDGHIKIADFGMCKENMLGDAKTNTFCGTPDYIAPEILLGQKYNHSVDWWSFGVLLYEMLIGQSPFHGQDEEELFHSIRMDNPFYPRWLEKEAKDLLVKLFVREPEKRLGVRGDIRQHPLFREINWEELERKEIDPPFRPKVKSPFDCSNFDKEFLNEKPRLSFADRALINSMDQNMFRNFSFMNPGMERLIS

[8] = blockers of HIV-1 envelope-mediated cell-cell fusion – cherry-pick, dose response (AID 652057); assay type: functional, cell-based
[9] = viability loss in CEM21 cells – cell-based, CellTiter-Glo luminescence, cherry-picked, cytotoxicity control for viral fusion inhibitor project, dose response (AID 652042); assay type: functional;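 also: potency for signal decrease meaning cytotoxicity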

Ki [3]: > 3.98 µM (inactive)
Compound: Cc1ccc(-c2cc(-c3cc(Br)ccc3O)[nH]c(=O)c2C#N)s1

Ki [7]: 1 µM (active)
Compound: O=C(Nc1cccc(C2Nc3ccc4ccccc4c3C3C=CCC32)c1)c1ccc(F)cc1 (centres undefined)

Further lines, the compound ahead of its results:

Compound: O=C(O)CC(C(=O)O)N1C(=O)/C(=C/C=C/c2ccco2)SC1=S (centres undefined)
IC50 [1]: > 20 µM (inactive)
IC50 [2]: > 1.51 µM (active)

Compound: Cc1ccc(C(=O)OCn2ncc(Cl)c(Cl)c2=O)cc1
IC50 [4]: 17.4 µM (inactive)
IC50 [5]: 6.12 µM (active)
IC50 [6]: 48.7 µM (inactive)

Compound: CCCC(=O)NC(c1cccs1)c1cc(Cl)c2cccnc2c1O (centres undefined)
AC50 [8]: 4.9 µM (active)
AC50 [9]: 25.1 µM (active)
